Measured values published in PubChem BioAssay AID248 (DTP/NCI, 2004).
Toxic doses and inconclusive results are not listed. No stated cut-off is given here; in the data, active means T/C of 150% or more; inactive means T/C below 125%.

Tested on: L1210 leukemia ip in BDF1 mice, survival T/C
Assay: NCI In Vivo Anticancer Drug Screen. Data for tumor model L1210 Leukemia (intraperitoneal) in B6D2F1 (BDF1) mice
Details: endpoint: mean survival time, higher = longer survival
Outline: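 Tumor cells were implanted, animals were treated, and survival was followed. The result divides the treated measurement by the vehicle-control measurement.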

[1] = dose: 100.0 mg/kg/injection, schedule: Q04DX002 (ip), vehicle: saline with Tween-80
[2] = dose: 200.0 mg/kg/injection, schedule: Q04DX002 (ip), vehicle: saline with Tween-80
[3] = dose: 400.0 mg/kg/injection, schedule: Q04DX002 (ip), vehicle: saline with Tween-80
[4] = dose: 100.0 mg/kg/injection, schedule: Q01DX001 (ip), vehicle: carboxymethylcellulose (CMC)
[5] = dose: 200.0 mg/kg/injection, schedule: Q01DX001 (ip), vehicle: carboxymethylcellulose (CMC)
[6] = dose: 100.0 mg/kg/injection, schedule: Q01DX009 (ip), vehicle: Klucel (hydroxypropylcellulose) (HPC)
[7] = dose: 100.0 mg/kg/injection, schedule: Q04DX003 (ip), vehicle: Klucel (hydroxypropylcellulose) (HPC)
[8] = dose: 200.0 mg/kg/injection, schedule: Q01DX009 (ip), vehicle: Klucel (hydroxypropylcellulose) (HPC)
[9] = dose: 200.0 mg/kg/injection, schedule: Q04DX003 (ip), vehicle: Klucel (hydroxypropylcellulose) (HPC)
[10] = dose: 400.0 mg/kg/injection, schedule: Q01DX009 (ip), vehicle: Klucel (hydroxypropylcellulose) (HPC)
[11] = dose: 400.0 mg/kg/injection, schedule: Q04DX003 (ip), vehicle: Klucel (hydroxypropylcellulose) (HPC)
[12] = dose: 100.0 mg/kg/injection, schedule: Q01DX009 (ip), vehicle: saline with Tween-80
[13] = dose: 100.0 mg/kg/injection, schedule: Q04DX003 (ip), vehicle: saline with Tween-80
[14] = dose: 200.0 mg/kg/injection, schedule: Q01DX009 (ip), vehicle: saline with Tween-80
[15] = dose: 200.0 mg/kg/injection, schedule: Q04DX003 (ip), vehicle: saline with Tween-80
[16] = dose: 400.0 mg/kg/injection, schedule: Q04DX003 (ip), vehicle: saline with Tween-80
[17] = dose: 50.0 mg/kg/injection, schedule: Q01DX009 (ip), vehicle: Klucel (hydroxypropylcellulose) (HPC)

Measured: T/C

CCCCCCCCCC(=O)Nc1c(C)cccc1C
inactive: [1] 94 % of control | [2] 111 % of control | [3] 94 % of control

CC(C)(C)C1COP(=O)(Oc2ccccc2)OC1 (configuration not stated)
inactive: [4] 91 % of control | [5] 94 % of control

COc1ccc(C2NC(=O)c3ccccc3N2)c(OC)c1OC (configuration not stated)
inactive: [6] 105 % of control | [7] 97 % of control | [8] 100 % of control | [9] 101 % of control | [10] 106 % of control | [11] 102 % of control

CCCCCCCCCCCC(=O)O.[Cr]
inactive: dose: 100.0 mg/kg/injection, schedule: Q01DX009 (ip), vehicle: other 93 % of control | dose: 100.0 mg/kg/injection, schedule: Q04DX003 (ip), vehicle: other 97 % of control | dose: 200.0 mg/kg/injection, schedule: Q01DX009 (ip), vehicle: other 95 % of control | dose: 200.0 mg/kg/injection, schedule: Q04DX003 (ip), vehicle: other 102 % of control | dose: 400.0 mg/kg/injection, schedule: Q01DX009 (ip), vehicle: other 92 % of control | dose: 400.0 mg/kg/injection, schedule: Q04DX003 (ip), vehicle: other 91 % of control

NC1C(=O)Nc2cc(O)c(C(=O)O)cc21 (configuration not stated)
inactive: dose: 100.0 mg/kg/injection, schedule: Q01DX001 (ip), vehicle: gum acacia 100 % of control | dose: 200.0 mg/kg/injection, schedule: Q01DX001 (ip), vehicle: gum acacia 100 % of control | dose: 400.0 mg/kg/injection, schedule: Q01DX001 (ip), vehicle: gum acacia 97 % of control

CCCCOCCOC(=O)C1OC1(C)c1ccccc1 (configuration not stated)
inactive: [1] 100 % of control | [2] 102 % of control | [3] 106 % of control

Cc1ccc(C)c(C(=O)CCC(=O)O)c1
inactive: dose: 25.0 mg/kg/injection, schedule: Q01DX009 (ip), vehicle: saline with Tween-80 100 % of control | dose: 50.0 mg/kg/injection, schedule: Q01DX009 (ip), vehicle: saline with Tween-80 96 % of control | [12] 105 % of control | dose: 100.0 mg/kg/injection, schedule: Q01DX009 (ip), vehicle: saline 95 % of control | [13] 91 % of control | [14] 94 % of control | dose: 200.0 mg/kg/injection, schedule: Q01DX009 (ip), vehicle: saline 95 % of control | [15] 92 % of control | dose: 400.0 mg/kg/injection, schedule: Q01DX009 (ip), vehicle: saline 95 % of control | [16] 97 % of control

OCn1nc(Cl)c2cc(Cl)ccc21
inactive: [4] 103 % of control | [5] 98 % of control | dose: 400.0 mg/kg/injection, schedule: Q01DX001 (ip), vehicle: carboxymethylcellulose (CMC) 100 % of control

C[N+]1(C)C2CCC1[C@H](C(=O)[O-])[C@@H](O)C2 (some centres not stated)
inactive: dose: 100.0 mg/kg/injection, schedule: Q01DX001 (ip), vehicle: saline 103 % of control | dose: 200.0 mg/kg/injection, schedule: Q01DX001 (ip), vehicle: saline 93 % of control | dose: 400.0 mg/kg/injection, schedule: Q01DX001 (ip), vehicle: saline 98 % of control

COc1cc2c(cc1OC)C1CC(=O)C(CC(C)C)CN1CC2 (configuration not stated)
inactive: dose: 25.0 mg/kg/injection, schedule: Q01DX009 (ip), vehicle: Klucel (hydroxypropylcellulose) (HPC) 105 % of control | [17] 103 % of control | [6] 117 % of control | [12] 102 % of control | [14] 90 % of control | dose: 400.0 mg/kg/injection, schedule: Q01DX009 (ip), vehicle: saline with Tween-80 89 % of control

O=C1OC(=O)C2C3OC(C(Cl)C3Cl)C12 (configuration not stated)
inactive: [6] 106 % of control | [8] 106 % of control

COc1ccc([PH+](c2ccc(OC)cc2)c2ccc(OC)cc2)cc1.COc1ccc([PH+](c2ccc(OC)cc2)c2ccc(OC)cc2)cc1.[Cl][Hg][Cl]
inactive: [17] 108 % of control | [6] 101 % of control | [8] 93 % of control

Cc1cccc(N=P(c2ccccc2)(c2ccccc2)c2ccccc2)c1
inactive: [17] 96 % of control | [6] 88 % of control | [7] 95 % of control | [9] 96 % of control

CC(C(=O)c1ccccc1)C(O)(C(F)(F)F)C(F)(F)F (configuration not stated)
inactive: [13] 97 % of control | [15] 97 % of control | [16] 99 % of control

C1=CN2CC(c3ccccc3)=NNC2c2ccccc21 (configuration not stated)
inactive: dose: 100.0 mg/kg/injection, schedule: Q04DX003 (ip), vehicle: alcohol 107 % of control | dose: 100.0 mg/kg/injection, schedule: Q04DX003 (ip), vehicle: saline 97 % of control | dose: 200.0 mg/kg/injection, schedule: Q04DX003 (ip), vehicle: saline 97 % of control

Clc1ccc(C2SCCS2)c(Cl)c1
inactive: [6] 105 % of control | [8] 108 % of control | [10] 124 % of control

CCOC(=O)C12CCC(=O)CC1(O)CCC1(C2)OCCCO1 (configuration not stated)
inactive: dose: 100.0 mg/kg/injection, schedule: Q## X003 (ip), vehicle: saline 98 % of control | dose: 200.0 mg/kg/injection, schedule: Q## X003 (ip), vehicle: saline 104 % of control | dose: 400.0 mg/kg/injection, schedule: Q## X003 (ip), vehicle: saline 102 % of control

O=C(O)CCC(CC(=O)O)c1ccccc1 (configuration not stated)
inactive: [6] 97 % of control | [8] 96 % of control | [10] 93 % of control

CCNc1nc(C)c2nc(C(=O)OCC)c(=O)[nH]c2n1
inactive: [17] 95 % of control | [6] 95 % of control | [8] 98 % of control

CCCCCCCCCCc1ccccc1
inactive: dose: 12.5 mg/kg/injection, schedule: Q04DX002 (ip), vehicle: saline with Tween-80 100 % of control | dose: 25.0 mg/kg/injection, schedule: Q04DX002 (ip), vehicle: saline with Tween-80 97 % of control | dose: 50.0 mg/kg/injection, schedule: Q04DX002 (ip), vehicle: saline with Tween-80 93 % of control | [2] 112 % of control

Fc1ccc(NC(=S)Nc2cc(Cl)cc(Cl)c2)cc1
inactive: dose: 7.5 mg/kg/injection, schedule: Q01DX Z (ip), vehicle: carboxymethylcellulose (CMC) 96 % of control | dose: 15.0 mg/kg/injection, schedule: Q01DX Z (ip), vehicle: carboxymethylcellulose (CMC) 93 % of control | dose: 30.0 mg/kg/injection, schedule: Q01DX Z (ip), vehicle: carboxymethylcellulose (CMC) 100 % of control | dose: 50.0 mg/kg/injection, schedule: Q01DX001 (ip), vehicle: carboxymethylcellulose (CMC) 98 % of control | dose: 60.0 mg/kg/injection, schedule: Q01DX Z (ip), vehicle: carboxymethylcellulose (CMC) 87 % of control | dose: 75.0 mg/kg/injection, schedule: Q01DX Z (ip), vehicle: carboxymethylcellulose (CMC) 87 % of control | [4] 93 % of control | [5] 95 % of control

CCN=C(N)SCC
inactive: dose: 100.0 mg/kg/injection, schedule: Q04DX002 (ip), vehicle: saline 95 % of control | dose: 200.0 mg/kg/injection, schedule: Q04DX002 (ip), vehicle: saline 95 % of control

CCCCCCCCCCCCCCCCOc1ccc(C)cc1
inactive: [13] 100 % of control | [15] 103 % of control | [16] 97 % of control

O=[N+]([O-])c1ccc(/C=C/c2nccs2)o1
inactive: [7] 97 % of control | [9] 106 % of control | [11] 108 % of control
